In PubChem BioAssay AID2060898 (Molecular Pharmacology Branch, DTP, NCI, 2025):

System: 616215-338-R-J1-PDC complex spheroid viability
Experiment: Anticancer human tumor 616215-338-R-J1-PDC patient-derived colon adenocarcinoma cell line growth inhibition [RAS]
Conditions: for IC50: curve of first compound; for viability, T/C: stronger effect = lower value
Procedure, shortened: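 Multi-cell-type spheroids: tumor cells plus HUVEC endothelial cells and mesenchymal stem cells. RAS-pathway inhibitors were combined with targeted agents, each dosed in half-log steps down from clinical Cmax, or from 10 microM when Cmax was unknown.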

[1] = second compound 0.00316 µM, first compound 0.0316 µM
[2] = second compound 0.00316 µM, first compound 0.1 µM
[3] = second compound 0.00316 µM, first compound 0.316 µM
[4] = second compound 0.00316 µM, first compound 1 µM
[5] = second compound 0.00316 µM, first compound 3.16 µM
[6] = second compound 0.00316 µM, first compound 10 µM
[7] = second compound 0.01 µM, first compound 0.0316 µM
[8] = second compound 0.01 µM, first compound 0.1 µM
[9] = second compound 0.01 µM, first compound 0.316 µM
[10] = second compound 0.01 µM, first compound 1 µM
[11] = second compound 0.01 µM, first compound 3.16 µM
[12] = second compound 0.01 µM, first compound 10 µM
[13] = second compound 0.0316 µM, first compound 0.0316 µM
[14] = second compound 0.0316 µM, first compound 0.1 µM
[15] = second compound 0.0316 µM, first compound 0.316 µM
[16] = second compound 0.0316 µM, first compound 1 µM
[17] = second compound 0.0316 µM, first compound 3.16 µM
[18] = second compound 0.0316 µM, first compound 10 µM
[19] = second compound 0.1 µM, first compound 0.0316 µM
[20] = second compound 0.1 µM, first compound 0.1 µM
[21] = second compound 0.1 µM, first compound 0.316 µM
[22] = second compound 0.1 µM, first compound 1 µM
[23] = second compound 0.1 µM, first compound 3.16 µM
[24] = second compound 0.1 µM, first compound 10 µM
[25] = second compound 0.316 µM, first compound 0.0316 µM
[26] = second compound 0.316 µM, first compound 0.1 µM
[27] = second compound 0.316 µM, first compound 0.316 µM
[28] = second compound 0.316 µM, first compound 1 µM
[29] = second compound 0.316 µM, first compound 3.16 µM
[30] = second compound 0.316 µM, first compound 10 µM
[31] = second compound 1 µM, first compound 0.0316 µM
[32] = second compound 1 µM, first compound 0.1 µM
[33] = second compound 1 µM, first compound 0.316 µM
[34] = second compound 1 µM, first compound 1 µM
[35] = second compound 1 µM, first compound 3.16 µM
[36] = second compound 1 µM, first compound 10 µM
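Also: spheroids exposed to agents for seven days before viability readout.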
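For viability, T/C in this document: 100% = DMSO vehicle control viability.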

With `CC(Nc1ccc2c(c1)OCCn1cc(N3C(=O)OCC3C(F)F)nc1-2)C(N)=O` (stereo unspecified) + C=CC(=O)N1CCN(c2nc(OCC3CCCN3C)nc3c(F)c(-c4nc(N)cc(C)c4C(F)(F)F)c(Cl)cc23)C(C)C1 the IC50 (second compound 0.00316 µM) was > 10 µM, the IC50 (second compound 0.01 µM) was > 10 µM and the IC50 (second compound 0.0316 µM) was > 10 µM. The IC50 (second compound 0.1 µM) was > 10 µM, the IC50 (second compound 0.316 µM) was > 10 µM and the IC50 (second compound 1 µM) was > 10 µM. For the same molecule, the viability, T/C [1] was 106%, the viability, T/C [2] was 122% and the viability, T/C [3] was 109%. It also gave a viability, T/C [4] of 101%, a viability, T/C [5] of 100% and a viability, T/C [6] of 82.2%. For the same molecule, the viability, T/C [7] was 106%, the viability, T/C [8] was 115% and the viability, T/C [9] was 110%. The viability, T/C [10] was 111%, the viability, T/C [11] was 105% and the viability, T/C [12] was 85.9%. The viability, T/C [13] was 110%, the viability, T/C [14] was 114% and the viability, T/C [15] was 119%. For the same molecule, the viability, T/C [16] was 115%, the viability, T/C [17] was 93.3% and the viability, T/C [18] was 80.1%. The viability, T/C [19] was 111%, the viability, T/C [20] was 108% and the viability, T/C [21] was 107%. For the same molecule, the viability, T/C [22] was 131%, the viability, T/C [23] was 101% and the viability, T/C [24] was 77.9%. It also gave a viability, T/C [25] of 109%, a viability, T/C [26] of 103% and a viability, T/C [27] of 111%. For the same molecule, the viability, T/C [28] was 109%, the viability, T/C [29] was 103% and the viability, T/C [30] was 86.2%. It also gave a viability, T/C [31] of 106%, a viability, T/C [32] of 107% and a viability, T/C [33] of 109%. The viability, T/C [34] was 119%, the viability, T/C [35] was 98% and the viability, T/C [36] was 73.4%.

For `C[C@@H](NC(=O)c1ncnc(N)c1Cl)c1ncc(C(=O)Nc2cc(C(F)(F)F)c(Cl)cn2)s1` + C=CC(=O)N1CCN(c2nc(OCC3CCCN3C)nc3c(F)c(-c4nc(N)cc(C)c4C(F)(F)F)c(Cl)cc23)C(C)C1, the IC50 (second compound 0.00316 µM) was > 10 µM, the IC50 (second compound 0.01 µM) was > 10 µM and the IC50 (second compound 0.0316 µM) was > 10 µM. For the same molecule, the IC50 (second compound 0.1 µM) was 9.75 µM, the IC50 (second compound 0.316 µM) was > 10 µM and the IC50 (second compound 1 µM) was > 10 µM. It also gave a viability, T/C [1] of 109%, a viability, T/C [2] of 111% and a viability, T/C [3] of 120%. For the same molecule, the viability, T/C [4] was 140%, the viability, T/C [5] was 118% and the viability, T/C [6] was 53.5%. The viability, T/C [7] was 106%, the viability, T/C [8] was 114% and the viability, T/C [9] was 121%. For the same molecule, the viability, T/C [10] was 120%, the viability, T/C [11] was 97.1% and the viability, T/C [12] was 59.9%. For the same molecule, the viability, T/C [13] was 102%, the viability, T/C [14] was 112% and the viability, T/C [15] was 114%. For the same molecule, the viability, T/C [16] was 119%, the viability, T/C [17] was 122% and the viability, T/C [18] was 59.5%. The viability, T/C [19] was 118%, the viability, T/C [20] was 103% and the viability, T/C [21] was 113%. It also gave a viability, T/C [22] of 114%, a viability, T/C [23] of 107% and a viability, T/C [24] of 48.6%. It also gave a viability, T/C [25] of 114%, a viability, T/C [26] of 104% and a viability, T/C [27] of 113%. The viability, T/C [28] was 117%, the viability, T/C [29] was 116% and the viability, T/C [30] was 65%. It also gave a viability, T/C [31] of 112%, a viability, T/C [32] of 98.6% and a viability, T/C [33] of 111%. It also gave a viability, T/C [34] of 131%, a viability, T/C [35] of 112% and a viability, T/C [36] of 61.2%.

`O=C(c1ccc(F)c(F)c1Nc1ccc(I)cc1F)N1CC(O)([C@@H]2CCCCN2)C1` + C=CC(=O)N1CCN(c2nc(OCC3CCCN3C)nc3c(F)c(-c4nc(N)cc(C)c4C(F)(F)F)c(Cl)cc23)C(C)C1 showed an IC50 (second compound 0.00316 µM) of 0.0621 µM, an IC50 (second compound 0.01 µM) of 0.0707 µM and an IC50 (second compound 0.0316 µM) of 0.0721 µM. For the same molecule, the IC50 (second compound 0.1 µM) was 0.0894 µM, the IC50 (second compound 0.316 µM) was 0.0674 µM and the IC50 (second compound 1 µM) was 0.0613 µM. It also gave a viability, T/C (second compound 0.00316 µM, first compound 0.00316 µM) of 114%, a viability, T/C (second compound 0.00316 µM, first compound 0.01 µM) of 112% and a viability, T/C [1] of 65.3%. It also gave a viability, T/C [2] of 38.6%, a viability, T/C [3] of 12.9% and a viability, T/C [4] of 4.36%. The viability, T/C (second compound 0.01 µM, first compound 0.00316 µM) was 98.8%, the viability, T/C (second compound 0.01 µM, first compound 0.01 µM) was 108% and the viability, T/C [7] was 81.7%. It also gave a viability, T/C [8] of 36%, a viability, T/C [9] of 13.1% and a viability, T/C [10] of 6.62%. For the same molecule, the viability, T/C (second compound 0.0316 µM, first compound 0.00316 µM) was 110%, the viability, T/C (second compound 0.0316 µM, first compound 0.01 µM) was 115% and the viability, T/C [13] was 74.7%. The viability, T/C [14] was 40%, the viability, T/C [15] was 15% and the viability, T/C [16] was 3.89%. It also gave a viability, T/C (second compound 0.1 µM, first compound 0.00316 µM) of 106%, a viability, T/C (second compound 0.1 µM, first compound 0.01 µM) of 116% and a viability, T/C [19] of 82.5%. The viability, T/C [20] was 47.5%, the viability, T/C [21] was 16.7% and the viability, T/C [22] was 6.51%. For the same molecule, the viability, T/C (second compound 0.316 µM, first compound 0.00316 µM) was 100%, the viability, T/C (second compound 0.316 µM, first compound 0.01 µM) was 105% and the viability, T/C [25] was 80.6%. It also gave a viability, T/C [26] of 33.1%, a viability, T/C [27] of 13.9% and a viability, T/C [28] of 4.52%. The viability, T/C (second compound 1 µM, first compound 0.00316 µM) was 102%, the viability, T/C (second compound 1 µM, first compound 0.01 µM) was 101% and the viability, T/C [31] was 72.2%. The viability, T/C [32] was 31.7%, the viability, T/C [33] was 18.8% and the viability, T/C [34] was 5.31%.
